Consider 23 compounds from patent US10028961B2, “Therapeutically active compounds and their methods of use” (AGIOS PHARMACEUTICALS, INC., priority 2013, dated 2018).

The target in assay [1] is IDH1 wt/IDH1 R132C heterodimer (Homo sapiens (Human), UniProt O75874, R132C). The assay is described as follows: In vitro assay for IDH1m R132C inhibitors, IDH1 wt/IDH1 R132C heterodimer, NADPH depletion (diaphorase/resazurin). It is filed as biochemical. The settings on record: NADPH/NADP. As to the method:
The following describes the experimental procedures that can be used to obtain data on columns 2 and 4 of Table 4 and column 2 of Table 5.
In the primary reaction, the reduction of α-KG acid to 2-HG is accompanied by a concomitant oxidation of NADPH to NADP. The amount of NADPH remaining at the end of the reaction time is measured in a secondary diaphorase/resazurin reaction in which the NADPH is consumed in a 1:1 molar ratio with the conversion of resazurin to the highly fluorescent resorufin.
The mixture of compound, enzyme, and cofactor is pre-incubated at room temperature for 1 hr prior to the addition of alpha-ketoglutarate. To perform the secondary reaction, 10 uL of 1× buffer containing 36 μg/ml diaphorase and […] resazurin is added to the primary reaction and incubated for a further 5 minutes at 25° C. Florescence is read on a Spectramax platereader at Ex 544 Em 590. Compounds or compound dilutions are prepared in 100% DMSO concentration and diluted 1:50 into the final reaction. […] IC50s are determined.
IDH1 or IDH2 wildtype (wt) and mutant heterodimers are expressed and purified by methods known in the art. For example, IDH1wt/R132m heterodimer is expressed and purified as follows. Co-expression of IDH1wt-his and IDH1R132C-flag is carried out in sf9 insect cells. Cells (25 g) are resuspended in 250 ml of 50 mM Tirs, 500 mM NaCl, pH7.4, at 4° C. with stirring. Cells are disrupted with 4 passes through an M-Y110 Micro fluidizer (Microfluidics) set to 500 psi, and then centrifuged at 22,000 rcf for 20 min at 4° C. The supernatant is harvested and loaded at 15 cm/h on a Histrap FF 5*1 ml column (GE) which is equilibrated with 50 mM Tirs, 500 mM NaCl, pH7.4. Host cell contaminants are removed by washing the column with equilibration buffer followed by equilibration buffer containing 20 mM imidazole and 60 mM imidazole to baseline. IDH1wt-his homodimer and IDH1wt-his/IDH1R132C-flag are eluted by equilibration buffer containing 250 mM imidazole. Fractions eluted by 250 mM imidazole are pooled together and loaded at 15 cm/h onto a column pre-packed with 10 ml ANTI-FLAG® M2 Affinity Gel (Sigma), the column is equilibrated with 50 mM Tris, 500 mM NaCl, pH7.4. After washing with equilibration buffer, IDH1wt-his/IDH1R132C-flag heterodimer is eluted by equilibration buffer containing flag peptide (0.2 mg/ml). Aliquots of IDH1wt-his/IDH1R132C-flag are flash frozen in liquid N2 and stored at −80° C. Same conditions are used for the purification of IDH1wt-his/IDH1R132H-flag.
(Resazurin is reduced to fluorescent resorufin, in cell work by metabolically active cells.)

In assay [2] the target is IDH1 wt/IDH1 R132H heterodimer (Homo sapiens (Human), UniProt O75874, R132H). The assay is described as follows: In vitro assay for IDH1m R132H inhibitors, IDH1 wt/IDH1 R132H heterodimer, NADPH depletion (diaphorase/resazurin). The settings on record: IDH1 wt/R132H heterodimer, NADPH/NADP, not saturated; read-out: IDH1 wt/R132H NADPH/NADP IC50 not saturated. It is filed as biochemical. An outline of the steps: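 Purified IDH1wt-his/IDH1R132H-flag heterodimer (sf9 co-expression) pre-incubated 1 hr at room temperature with compound and NADPH before α-KG addition. Remaining NADPH read by diaphorase/resazurin conversion to fluorescent resorufin, 5 min at 25° C. Compounds diluted 1:50 from DMSO; IC50 determined.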

Assay [3] deals with IDH2 R140Q (Homo sapiens (Human), UniProt P48735, R140Q). The assay is described as follows: In vitro assay for IDH2m R140Q inhibitors, cofactor depletion assay. The class given is biochemical. The settings on record: IDH2 R140Q enzyme. An outline of the steps:
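Remaining cofactor measured fluorimetrically: diaphorase/resazurin Stop Mix […], halting the reaction. Before that, mutant enzyme and compound sat 1 h at RT, then substrate mix (4 μM NADPH, 1.6 mM α-KG) was added for 16 h at RT.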

Assay [4] relates to U87MG pLVX-IDH2 R140Q-neo cells. The assay is described as follows: U87MG pLVX-IDH2 R140Q-neo cell based assay, 2-HG by LC-MS. The settings on record: Homo sapiens, U-87 MG.
Assay [5] has as its system Neurosphere cells (TS603). In words: Cellular assay for IDH1m R132H inhibitors, 2-HG by LC-MS in neurosphere cells (TS603). The following applies: 2-HG in media at 48 hours. It is filed as cell-based. The gist of the method: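 TS603 neurosphere cells in NeuroCult medium were dosed with compound (0.25% DMSO final) at 37 C, 5% CO2. After 48 hours, medium 2-HG was measured by LC-MS. At 72 hours, viability was read by CellTiter-Glo luminescence.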

Assay [6] has as its system HT1080 cells. The assay is described as follows: Cellular assay for IDH1m R132C inhibitors, 2-HG by LC-MS in HT1080 cells. The class given is cell-based. The following applies: Homo sapiens, HT-1080. The gist of the method:
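HT1080 cells at 5000 cells/well were treated with compound (0.2% DMSO final). After 48 h, 2-HG in the medium was measured by LC-MS. Viability was read by CellTiter-Glo luminescence at 72 h.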

The target in assay [7] is IDH1-R132H homodimer enzyme (Homo sapiens (Human), UniProt O75874, R132H). The assay is described as follows: In vitro assay IDH1-R132H homodimer, NADPH depletion assay with NADPH/NADP preincubation. It is filed as biochemical. The following applies: 5 μM NADPH and 37.5 μM NADP. An outline of the steps: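 Conversion of alpha-ketoglutarate to 2-hydroxyglutarate tracked by NADPH depletion. Reaction started with 5 mM alpha-ketoglutarate plus NADPH substrate mix (50 μl total), 60 min at room temperature. Leftover NADPH quantified via diaphorase/resazurin fluorescence.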
IDH1-R132H homodimer enzyme, sequence (O75874 whole entry R132H): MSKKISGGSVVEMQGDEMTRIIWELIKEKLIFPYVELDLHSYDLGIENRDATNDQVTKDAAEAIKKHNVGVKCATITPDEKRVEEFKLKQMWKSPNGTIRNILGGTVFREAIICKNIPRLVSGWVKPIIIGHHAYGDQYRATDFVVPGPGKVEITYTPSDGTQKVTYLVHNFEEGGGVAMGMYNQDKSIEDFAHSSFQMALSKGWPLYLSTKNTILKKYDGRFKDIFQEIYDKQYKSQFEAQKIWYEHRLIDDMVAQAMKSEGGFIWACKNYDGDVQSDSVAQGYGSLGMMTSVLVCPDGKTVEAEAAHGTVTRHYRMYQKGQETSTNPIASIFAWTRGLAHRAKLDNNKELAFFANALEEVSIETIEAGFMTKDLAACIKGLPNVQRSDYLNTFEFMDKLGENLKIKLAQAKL

IDH1 wt/IDH1 R132H heterodimer, sequence (O75874 whole entry R132H): as above
IDH1 wt/IDH1 R132H heterodimer, sequence (O75874 whole entry, stated change not applied): as the sequence (O75874 whole entry R132H) above, with H132R counted along it
IDH2 R140Q, sequence (P48735 40-452 R140Q): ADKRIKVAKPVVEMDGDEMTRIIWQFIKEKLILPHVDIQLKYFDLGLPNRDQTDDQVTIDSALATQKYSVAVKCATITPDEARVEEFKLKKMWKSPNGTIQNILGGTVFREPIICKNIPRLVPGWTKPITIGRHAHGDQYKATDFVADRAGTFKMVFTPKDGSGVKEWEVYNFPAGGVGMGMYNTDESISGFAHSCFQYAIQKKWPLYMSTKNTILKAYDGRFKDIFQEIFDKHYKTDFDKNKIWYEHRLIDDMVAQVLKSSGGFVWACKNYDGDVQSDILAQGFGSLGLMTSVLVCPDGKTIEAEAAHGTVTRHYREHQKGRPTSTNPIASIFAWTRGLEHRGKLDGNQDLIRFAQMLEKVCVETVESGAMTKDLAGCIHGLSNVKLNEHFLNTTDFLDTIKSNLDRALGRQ
IDH1 wt/IDH1 R132C heterodimer, sequence (O75874 whole entry R132C): as the sequence (O75874 whole entry R132H) above, with H132C counted along it
IDH1 wt/IDH1 R132C heterodimer, sequence (O75874 whole entry, stated change not applied): as the sequence (O75874 whole entry R132H) above, with H132R counted along it

For `FC1(F)CCC(Nc2nc(NC3CCOC3)nc(-c3cccc(C(F)(F)F)n3)n2)C1` (stereo not drawn) [Compound 52], the IC50 in assay [1] is less than 50 nM; in assay [2], 50 to 100 nM.

For `CC(C)(C)OC(=O)N1CCC(Nc2nc(NC3CCC(F)(F)C3)nc(-c3cccc(C(F)(F)F)n3)n2)C1` (stereo not drawn) [Compound 53], the IC50 was in the range of 50 to 100 nM in assay [1] and 100 to 1000 nM in assay [2].

For the compound `CC(=O)N1CCC(Nc2nc(NC3CCC(F)(F)C3)nc(-c3cccc(C(F)(F)F)n3)n2)C1` (stereo not drawn) [Compound 55], the IC50 in assay [1] fell in the range of 50 to 100 nM; in assay [2], 100 to 1000 nM.

Turning to `CS(=O)(=O)N1CCC(Nc2nc(NC3CCC(F)(F)C3)nc(-c3cccc(C(F)(F)F)n3)n2)C1` (stereo not drawn) [Compound 56], the figures for the IC50 in assay [1] and in assay [2] were less than 50 nM and 50 to 100 nM, respectively.

As for `C[C@@H](Nc1nc(NC2CC3(C2)CC(F)(F)C3)nc(-c2cccc(C(F)(F)F)n2)n1)C1CC1` [Compound 58], the IC50 in assay [1] and in assay [2] was less than 50 nM in each case.

With `CC(C)(C)OC(=O)N1CCC(Nc2nc(NC3CCC(F)(F)C3)nc(-c3cccc(C(F)(F)F)n3)n2)C1` (stereo not drawn) [Compound 90], the results for the IC50 in assay [1] and in assay [2] were 50 to 100 nM and 100 to 1000 nM, respectively.

Turning to `FC1(F)CCC(Nc2nc(NC3CCNC3)nc(-c3cccc(C(F)(F)F)n3)n2)C1` (stereo not drawn) [Compound 91], the IC50 was no less than 1000 nM in assay [1] and greater than 1000 nM in assay [2].

In the case of `C[C@@H](Nc1nc(N[C@H](C)C2CC2)nc(-c2cccnc2)n1)C1CC1` [Compound 92, N^2,N^4-bis((R)-1-cyclopropylethyl)-6-(pyridin-3-yl)-1,3,5-triazine-2,4-diamine], the IC50 is no less than 1000 nM in assay [1] and greater than 1000 nM in assay [2].

On to `Fc1cc(F)cc(Nc2nc(NC3CCC(F)(F)CC3)nc(-c3cccc(C(F)(F)F)n3)n2)c1` [Compound 125], for which the IC50 in assay [1], in assay [3], in assay [2], in assay [4] and in assay [5] was less than 50 nM throughout.

As for `FC(F)c1csc(-c2nc(NC3CCC(F)(F)CC3)nc(NC3CCC(F)(F)CC3)n2)n1` [Compound 205], the IC50 in assay [6] was 50 to 100 nM; in assay [3], less than 50 nM; in assay [2], less than 50 nM; in assay [4], less than 50 nM; in assay [7], 100 to 1000 nM; in assay [5] it was less than 50 nM.

Consider `C[C@@H](Nc1nc(Nc2ccnc(C#N)c2)nc(-n2ccc(C(F)(F)F)n2)n1)C(F)(F)F` [Compound 207], for which the IC50 was 100 to 1000 nM in assay [6]; less than 50 nM in assay [3]; less than 50 nM in assay [2]; less than 50 nM in assay [4]; 50 to 100 nM in assay [7]; less than 50 nM in assay [5].

Take `CC(F)(F)c1nc(-c2nc(NC3CC(F)(F)C3)nc(NC3CC(F)(F)C3)n2)cs1` [Compound 209]: the IC50 in assay [6] was 100 to 1000 nM; in assay [3], less than 50 nM; in assay [2], less than 50 nM; in assay [4], less than 50 nM; in assay [7], 100 to 1000 nM; in assay [5], less than 50 nM.

`N#Cc1cc(Nc2nc(NC3CC(F)(F)C3)nc(-n3ccc(C(F)(F)F)n3)n2)ccn1` [Compound 210]: the IC50 is 100 to 1000 nM in assay [6]; less than 50 nM in assay [3]; less than 50 nM in assay [2]; less than 50 nM in assay [4]; 50 to 100 nM in assay [7]; less than 50 nM in assay [5].

`CC(F)(F)c1cccc(-c2nc(Nc3ccnc(C4(C#N)CC4)c3)nc(NC3CCC(F)(F)CC3)n2)n1` [Compound 211]: the IC50 in assay [6] was 100 to 1000 nM; in assay [3], less than 50 nM; in assay [2], less than 50 nM; in assay [4], less than 50 nM; in assay [7] it was 100 to 1000 nM; in assay [5], less than 50 nM.

Turning to `FC1(F)CCC(Nc2nc(NC3CCC(F)(F)CC3)nc(-c3cccc(Cl)n3)n2)CC1` [Compound 212], the IC50 is 50 to 100 nM in assay [6]; less than 50 nM in assay [3]; less than 50 nM in assay [2]; less than 50 nM in assay [4]; 100 to 1000 nM in assay [7]; less than 50 nM in assay [5].

Consider `N#CC1(c2cc(Nc3nc(NCC(F)(F)F)nc(-c4cccc(Cl)n4)n3)ccn2)CC1` [Compound 215], for which the IC50 was 100 to 1000 nM in assay [6]; less than 50 nM in assay [3]; less than 50 nM in assay [2]; less than 50 nM in assay [4]; 50 to 100 nM in assay [7]; less than 50 nM in assay [5].

Take `FC1(F)CC(CNc2nc(NCC3CC(F)(F)C3)nc(-c3cccc(C(F)(F)F)n3)n2)C1` [Compound 216]: the IC50 in assay [6] was 100 to 1000 nM; in assay [3], less than 50 nM; in assay [2], less than 50 nM; in assay [4], less than 50 nM; in assay [7], 100 to 1000 nM; in assay [5] it was less than 50 nM.

Turning to `CC(Nc1nc(Nc2ccnc(-c3ccccc3)c2)nc(-c2cccc(C(F)(F)F)n2)n1)C(F)(F)F` (stereo not drawn) [Compound 217], the IC50 was 100 to 1000 nM in assay [6]; less than 50 nM in assay [3]; less than 50 nM in assay [2]; less than 50 nM in assay [4]; 50 to 100 nM in assay [7]; less than 50 nM in assay [5].

Take `FC1(F)CCC(Nc2nc(Nc3ccnc(-c4ccccc4)c3)nc(-c3cccc(C(F)(F)F)n3)n2)CC1` [Compound 220]: the IC50 in assay [6] was 100 to 1000 nM; in assay [3], 50 to 100 nM; in assay [2], less than 50 nM; in assay [4] it was 50 to 100 nM; in assay [7], 50 to 100 nM; in assay [5] it was less than 50 nM.

As to `FC1(F)CC(CNc2nc(Nc3ccnc(C(F)(F)F)c3)nc(-c3cccc(C(F)(F)F)n3)n2)C1` [Compound 221], the IC50 is greater than 1000 nM in assay [6]; less than 50 nM in assay [3]; less than 50 nM in assay [2]; less than 50 nM in assay [4]; 100 to 1000 nM in assay [7]; less than 50 nM in assay [5].

Regarding `FC(F)(F)CNc1nc(Nc2ccnc(C(F)(F)F)c2)nc(-c2cccc(C(F)(F)F)n2)n1` [Compound 232], the IC50 in assay [6] was greater than 1000 nM; in assay [3] it was less than 50 nM; in assay [2] it was less than 50 nM; in assay [4], less than 50 nM; in assay [7], 100 to 1000 nM; in assay [5] it was less than 50 nM.

For `Nc1ccc(F)c(-c2nc(NC3CCC(F)(F)CC3)nc(NC3CCC(F)(F)CC3)n2)n1` [Compound 249], the IC50 in assay [6] was 100 to 1000 nM; in assay [3], less than 50 nM; in assay [2] it was 50 to 100 nM; in assay [4], 100 to 1000 nM; in assay [7], greater than 1000 nM; in assay [5], 50 to 100 nM.

As for `FC1(F)CC(Nc2nc(NC3CC(F)(F)C3)nc(-c3ccnc(C(F)(F)F)n3)n2)C1` [Compound 251], the IC50 was 100 to 1000 nM in assay [6]; less than 50 nM in assay [3]; 50 to 100 nM in assay [2]; 100 to 1000 nM in assay [4]; 100 to 1000 nM in assay [7]; less than 50 nM in assay [5].
